Laboratory results as given in patent US6472396B1, “Barbituric acid derivatives, processes for their production and pharmaceutical agents containing these compounds” (Roche Diagnostics GmbH, priority 1995, dated 2002).
Read-outs that look alike come from different tables or passages of the source.

Biological target: T1, MMP-8 (Homo sapiens, UniProt P22894)
T1 construct: catalytic domain (Met80-Gly242) of human neutrophil collagenase; made in house
Assay: Inhibition of MMPs (HNC catalytic domain), fluorogenic heptapeptide substrate DNP-Pro-Leu-Gly-Leu-Trp-Ala-D-Arg-NH2
Assay type: biochemical
Protocol: In order to determine the inhibition of MMPs, for example HNC, the catalytic domain (isolation and purification see for example Schnierer, S., Kleine, T., Gote, T., Hillemann, A., Knäuper, V., Tschesche, H., Biochem. Biophys. Res. Commun. (1993) 191, 319-326) is incubated with inhibitors having various concentrations. Subsequently, the initial reaction rate in the conversion of a standard substrate is measured in a manner analogous to Grams F. et al., FEBS 335 (1993) 76-80).
The results are evaluated by plotting the reciprocal reaction rate against the concentration of the inhibitor. The inhibition constant (Ki) is obtained as the negative section of the abscissis by the graphical method according to Dixon, M., Biochem. J. (1953) 55, 170-202.
The synthetic collagenase substrate is a heptapeptide which is coupled, at the […], with DNP (dinitrophenol). Said DNP residue quenches by steric hindrance the fluorescence of the adjacent tryptophane of the heptapeptide. After cleavage of a tripeptide which includes the DNP group, the tryptophane fluorescence increases. The proteolytic cleavage of the substrate therefore can be measured by the fluorescence value.
The assay was performed at 25° C. in a freshly prepared 50 mM Tris buffer (pH 8.0) treated with dithiozone to remove traces of heavy metals. 4 mM CaCl2 was added and the buffer saturated wtih argon. Stock solutions of adamalysin II were prepared by centrifugation of the protein from an ammonium sulfate suspension and subsequent dissolution in the assay buffer. Stock solutions of collagenase were diluted with the assay buffer. Enzyme concentrations were determined by uv measurements (ε280=2.8 10^4 M1 cm^−1, ε288: 2.2 10^4 M^−1 cm^−1) and the stock solutions were stored in the cold. This solution was diluted 1:100 to obtain the final 16 nM assay concentration. The fluorogenic substrate DNP-ProLeu-Gly-LeuTrp-Ala-D-Arg-NH2 with a Km of 52 μM was used at a concentration of 21.4 μM; for the Ki determination a 12.8 μM concentration has also been used. Substrate fluorescence was measured at an excitation and emission wavelength of λ=320 and 420 nm, respectively, on a spectrofluorimeter (Perkin Elmer, Model 650-40) equipped with a thermostated cell holder. Substrate hydrolysis was monitored for 10 min. immediately after adding the enzyme. All reactions were performed at least in triplicate. The Ki values—of the inhibitors were calculated from the intersection point of the straight lines obtained by the plots of vo/vi vs. [concentration of inhibitor], whereas IC50 values were calculated from plots of vi/vo [concentration of inhibitor] by non-linear regression with simple robust weighting.
50 mM Tris/HCl pH 7.6 (Tris=Tris-(hydroxymethyl)-aminomethan)
100 mM NaCl/10 mM CaCl 2/5% MeOH (ff necessary)
Enzyme: 8 nM catalytic domain (Met80-Gly242) of human neutrophil collagenase
Substrate: 10 microM DNP-Pro-Leu-Gly-Leu-Trp-Ala-D-Arg-NH2
A solution of the enzyme and inhibitor in assay buffer (25° C.) was prepared. The reaction was started directly by giving the substrate into the solution. The cleavage of the flourogenic substrate was followed by flourescence spectroscopy with an excitation and emision wavelength of 280 and 350 nm, respectively. The IC50 value was calculated as the inhibitor concentration, which is necessary to decrease the velocity of the reaction to the half in comparison to the reaction without inhibitor.

[1] = MMP-8 (catalytic domain of human neutrophil collagenase), 25° C., read-out: IC-50

T1 sequence (P22894 100-262 limits assumed): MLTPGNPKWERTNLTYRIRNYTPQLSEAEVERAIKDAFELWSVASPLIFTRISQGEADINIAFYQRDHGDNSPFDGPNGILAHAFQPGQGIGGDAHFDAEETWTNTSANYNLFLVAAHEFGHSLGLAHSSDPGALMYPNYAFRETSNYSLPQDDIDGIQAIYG

Molecule | IC50 [nM] | IC50 [1] [nM]
O=C1NC(=O)C(c2ccccc2)(N2CCN(c3ccc([N+](=O)[O-])cc3)CC2)C(=O)N1 [example 32.77, 5-[4-(4-Nitro-phenyl)-piperazin-1-yl)-5-phenyl-pyrimidine-2,4,6-trione] | 160 | 
5-Decyl-5-[N-(2-hydroxyethyl)piperazinyl]barbituric Acid [example 28] |  | 320
O=C1NC(=O)C(NC(=O)c2cccc3c2C(=O)c2ccccc2-3)(c2ccccc2)C(=O)N1 [example 32.74, 9-Oxo-9H-fluorene-1-carboxylic acid (2,4,6-trioxo-5-phenyl-hexadro-pyrimidin-5-yl)-amide] |  | 890
5-[N-(2-Hydroxyethyl)piperazinyl]-5-(4-hydroxyphenyl)barbituric Acid [example 20] |  | 860
5-Octyl-5-[N-(2-hydroxyethyl)piperazinyl]barbituric Acid [example 23] |  | 110
O=C1NC(=O)C(c2ccc(-c3ccccc3)cc2)(N2CCN(c3ccc([N+](=O)[O-])cc3)CC2)C(=O)N1 [example 26, 5-(4′-Biphenyl)-5-[N-(4-nitrophenyl)piperazinyl]barbituric Acid] |  | 15
O=C1NC(=O)C(c2ccccc2)(N(Cc2ccccc2)C(=O)Cc2cccc(Br)c2)C(=O)N1 [preferred no. 120, N-Benzyl-2-(3-bromo-phenyl)-N-(2,4,6-trioxo-5-phenyl-hexahydro-pyrimidin-5-yl)-acetamide] | 150 | 
CCCCCCCCC1(N2CCN(c3ccc([N+](=O)[O-])cc3)CC2)C(=O)NC(=O)NC1=O [preferred no. 118] |  | 60
